Calls of active or inactive are those of the source. No cut-off is given here; in the data, nearly all actives have IC50 up to about 8.9 µM.
Molecular target: Signal transducer and activator of transcription 3 (Homo sapiens) (UniProt P40763)
Assay: blockers of STAT3 signaling, concentration series – cell-based, dose response (AID 1399)
Settings: human cell STAT3 reporter inhibition

Compound | IC50
CC1CCC2C(=O)N(c3ccccc3OC(=O)c3ccccc3)C(=O)C2C1 (stereo not given) | 9.22 µM
CCOC(=O)Cc1csc(SCC(=O)c2c(N)n(CC(C)C)c(=O)n(C)c2=O)n1 | 3.7 µM
C[C@H]1O[C@@H](O[C@H]2[C@@H](O)C[C@H](O[C@H]3[C@@H](O)C[C@H](O[C@H]4CC[C@@]5(C)[C@H](CC[C@@H]6[C@@H]5CC[C@]5(C)[C@@H](C7=CC(=O)OC7)CC[C@]65O)C4)O[C@@H]3C)O[C@@H]2C)C[C@H](O)[C@@H]1O | 0.7 µM
CN(C)S(=O)(=O)c1ccc(C(=O)Nc2nc(-c3cccs3)cs2)cc1 | 8.64 µM
NC(=O)C1CCN(c2ccc(S(=O)(=O)N3CCC(Cc4ccccc4)CC3)cn2)CC1 | 4.93 µM
Cc1ccc(Cl)cc1N1CCN(C(=O)COc2ccc(S(=O)(=O)NC(C)C)cc2)CC1 | 7.8 µM
COC(=O)Oc1ccc(/C=N/NC(=O)CSCc2ccccc2Br)cc1OC | 2.07 µM
CN1/C(=C\C(=O)C[n+]2ccc3ccccc3c2)C(C)(C)c2ccccc21 | 1.74 µM
Cc1ccc(N2C(=O)c3ccccc3C2O)nc1 (stereo not given) | 5.98 µM
CCC(C)(C)c1ccc(OCCCC[n+]2cccc(C)c2)c(C(C)(C)CC)c1 | 4.09 µM
O=C(Nc1ccc(N2CCN(C(=O)c3ccco3)CC2)c(Cl)c1)c1cc2ccccc2o1 | 8.95 µM
CC(=O)Nc1ccc(-c2csc(Nc3ccc(Cl)cn3)n2)cc1 | 6.34 µM
Cc1nc2sccn2c1-c1csc(NCc2ccccc2)n1 | 4.37 µM
O=C1CCCN1c1ccc(S(=O)(=O)N2CCC(c3ccccc3)CC2)cc1 | 4.5 µM
O=C(Nc1cccc(O)c1)c1noc2c1CCc1ccccc1-2 | 3.55 µM
Cc1ccc(-n2nnnc2SCn2nnc3ccccc3c2=O)c(C)c1 | 5.32 µM
COc1ccc(C(=O)Nc2ccc3oc(Cc4ccc(Cl)cc4)nc3c2)cc1OC | 6.74 µM
Cc1nc2ccccc2cc1OCc1ccc(F)cc1 | 3.47 µM
COc1cccc(-c2cc(C(=O)Nc3cccc(O)c3)no2)c1 | 4.99 µM
O=C(C1CCN(c2nc3ccc(Br)cc3s2)CC1)N1CCC2(CC1)OCCO2 | 2.79 µM
O=C(Nc1nc(-c2ccc(Cl)s2)cs1)c1ccncc1 | 4.01 µM
CN(C)S(=O)(=O)Oc1cccc(C(=O)Nc2ccc(Cl)cc2)c1 | 5.23 µM

Compound | IC50
O=c1c2c(nc3n1CCCCC3)sc1c(O)cccc12 | 7.42 µM
Nc1c(C(=O)NC2CCCCC2)nsc1C(=O)OCC(=O)NC1CCCCC1 | 4.22 µM
CCOC(=O)c1ccc(NC(=O)c2ccc(CN3CCOCC3)cc2)cc1 | 2.9 µM
Clc1ccc(OCc2cc(-c3ccccc3)no2)c(Cl)c1 | 8.02 µM
CCN(CC)c1ccc(NC(=O)CN2C(=O)CSc3ncccc32)c(C)c1 | 3.82 µM
O=C(Nc1ccncc1)c1ccc(-c2ccccc2)cc1 | 2.16 µM
Cc1ccc(S(=O)(=O)N(C)c2ccc(C(=O)N3CCN(Cc4ccc5c(c4)OCO5)CC3)cc2)cc1 | 6.17 µM
CCCOc1ccc(CSc2nc3ccccc3[nH]2)cc1 | 6.53 µM
O=C(Nc1ccc(Cc2ccncc2)cc1)c1ccc(S(=O)(=O)N2CCOCC2)cc1 | 4.31 µM
O=C(Nc1ccc(N2CCOCC2)nc1)c1ccc(C(F)(F)F)cc1 | 3.4 µM
O=C(NC1CC1)c1cc2c(s1)-c1ccccc1OC2 | 3.83 µM
COc1ccc(/C=N/NC(=S)Nc2cccc(C(=O)O)c2)cc1 | 4.56 µM
COc1ccc(CC(=O)Nc2cccc(-c3nnc(-c4cccc(C)c4)o3)c2)cc1OC | 3.32 µM
C[C@H]1CCC[C@@H](O)CCC/C=C/c2cc(O)cc(O)c2C(=O)O1 | 5.25 µM
Cc1ccccc1OCCCCn1cnc2ccccc21 | 5.73 µM
O=C(Nc1ccc(Oc2ccccc2)cc1)c1cnc2n(c1=O)CCS2 | 1.61 µM
CCCCOc1ccc(C(=O)Nc2ccncc2)cc1 | 2.11 µM
C[C@H]1O[C@@H](O[C@H]2[C@@H](O)C[C@H](O[C@H]3[C@@H](O)C[C@H](O[C@H]4CC[C@@]5(C)[C@H](CC[C@@H]6[C@@H]5C[C@@H](O)[C@]5(C)[C@@H](C7=CC(=O)OC7)CC[C@]65O)C4)O[C@@H]3C)O[C@@H]2C)C[C@H](O)[C@@H]1O | 1.86 µM
Cc1cc(C)n(Cc2ccc(NC(=O)c3ccc(COc4ccccc4Br)cc3)cc2)n1 | 7.64 µM
O=C1C2C3c4ccccc4C(c4ccccc43)[C@@H]2c2nc3ccccc3n21 (stereo not given in full) | 4.51 µM
CC(=O)N1CCc2cc(S(=O)(=O)NC3CCCc4ccccc43)ccc21 (stereo not given) | 5.12 µM
O=C(COC(=O)c1n[nH]c2ccccc12)Nc1ccc(S(=O)(=O)N2CCCC2)cc1 | 4.5 µM

Compound | IC50
Cc1nc(CNS(=O)(=O)c2ccc(Oc3ccccc3)cc2)cs1 | 5.54 µM
Nc1cc(-c2ccccc2)nn1Cc1ccc(Cl)cc1 | 6.76 µM
Cc1cc(OCC(=O)Nc2ccncc2)ccc1Br | 6.7 µM
O=C(Nc1ccn(Cc2ccccc2F)n1)c1ccc(COc2ccc(Br)cc2)cc1 | 2.9 µM
CNC(=O)Oc1cccc(-c2cn3cc(Cl)ccc3n2)c1 | 1.78 µM
O=C(Nc1cccc(O)c1)C(=O)Nc1ccccn1 | 3.7 µM
COc1ccc(CC(=O)Nc2cccc(SC)c2)cc1OC | 6.37 µM
C[C@@H]1O[C@@H](O[C@H]2C[C@@H](O)[C@]3(CO)[C@H]4[C@H](O)C[C@]5(C)[C@@H](C6=CC(=O)OC6)CC[C@]5(O)[C@@H]4CC[C@]3(O)C2)[C@H](O)[C@H](O)[C@H]1O | 1.15 µM
O=C1c2ccc(Br)cc2C(=O)N1c1ccc(Cc2ccncc2)cc1 | 5.65 µM
O=C(COc1ccc2ccccc2c1)Nc1ccncc1 | 6.11 µM
Cc1ccc(-c2cn3cc([N+](=O)[O-])ccc3n2)cc1 | 4.09 µM
O=C(Oc1cccc(Nc2ncnc3ccccc23)c1)c1ccccc1Cl | 4.44 µM
Clc1ccc2ncc(-c3nnnn3-c3ccccc3)c(-c3ccccc3)c2c1 | 8.01 µM
CC1CCCCC1NS(=O)(=O)c1ccc(S(=O)(=O)NCc2ccncc2)cc1 (stereo not given) | 3.28 µM
Cc1cc(OCC(=O)Nc2ccncc2)cc(C)c1Br | 3.18 µM
O=C(Nc1cccc(Cl)c1)Nc1ccnc(-c2cccnc2)n1 | 3.2 µM
CC[n+]1ccccc1/C=C/c1ccc(N(C)C)cc1 | 2.94 µM
CCCNC(=O)c1ccc(-c2nc3ccccc3s2)s1 | 5.06 µM
CCOC(=O)C1=C(Cc2ccc(C)cc2)C(=O)c2ccccc2C1=O | 7.04 µM
Cc1cccc(-c2nc3cc(NC(=O)C4CCCO4)ccc3o2)c1 (stereo not given) | 6.32 µM
O=C(Nc1nccs1)c1ccc(S(=O)(=O)NCC2CCCCC2)cc1 | 3.03 µM
COc1ccc(Br)cc1/C(C)=N/NC1=NCCN1 | 5.44 µM

Compound | IC50
CSc1ccc(NC(=O)N2CCN(c3nc4ccccc4s3)CC2)cc1 | 5.96 µM
CN1/C(=C\C(=O)C[n+]2ccc(C(=O)c3ccccc3)cc2)C(C)(C)c2ccccc21 | 5.22 µM
COc1ccc2nc3c(cc2c1)c(NC(=O)c1cccs1)nn3CC(C)C | 3.75 µM
CCC(C)NC(=S)Nc1ccc(C(=O)OC)cc1 (stereo not given) | 4.35 µM
O=C(Oc1ccccc1N1C(=O)C2CCCCC2C1=O)c1ccccc1 (stereo not given) | 7.93 µM
Cc1nc2ccccc2cc1OCc1ccccc1 | 4.76 µM
CCOC(=O)c1oc2ccc(S(=O)(=O)Nc3ccc4c(c3)n(C)c(=O)n4C)cc2c1C | 5.04 µM
COc1ccc(C)cc1-n1nnnc1SCn1nnc2ccccc2c1=O | 7.58 µM
COc1ccc2cc(-c3cc(C(=O)OCC(=O)Nc4c(C)n(C)n(-c5ccccc5)c4=O)c4ccccc4n3)ccc2c1 | 4.63 µM
CNc1ccccc1C(C)(C)c1cc(-c2ccc(F)cc2)no1 | 5.41 µM
O=C1C2C3c4ccccc4C(c4ccccc43)C2c2nc3ccccc3n21 (stereo not given) | 3.23 µM
Cc1ccc2c(C)nc(Nc3nc(CSc4nc5ccccc5[nH]4)cc(=O)[nH]3)nc2c1 | 5.32 µM
COc1ccc(NS(=O)(=O)c2ccc(NC(=O)c3ccc(N(C)S(C)(=O)=O)cc3)cc2)cc1 | 3.99 µM
Nc1cc(-c2ccc(Br)cc2)nn1Cc1ccccc1 | 4.05 µM
COc1cc(OC)cc(C(=O)Nc2ccc(-c3nc4ccccc4o3)cc2)c1 | inactive
Cn1c(CN2CCCCC2)nc2cc(NC(=O)c3cccc(Br)c3)ccc21 | 4.55 µM
CCCOc1ccc(/C=N/NC(=S)Nc2ccccc2[N+](=O)[O-])c(O)c1 | 1.05 µM
O=C(Nc1ccn(Cc2ccccc2F)n1)c1ccc(COc2ccccc2Cl)cc1 | 5.12 µM
COc1ccc(/C=N/NC(=S)Nc2ccccc2[N+](=O)[O-])cc1O | 1.74 µM
Cc1ccsc1/C=C1\CCc2ccccc2C1=O | 5.04 µM
COc1ccc(-c2nn(C)c(=O)c3ccccc23)cc1NC(=O)COc1ccc(C)cc1 | 5.06 µM
CCCCCCCc1ccc(-c2ccc(O)cc2)nc1 | 3.26 µM

Compound | IC50
Cc1csc(NC(=O)c2cc3c(s2)CCCC3)n1 | 3.82 µM
CC(=O)c1ccc(N=Nc2ccc(C)cc2)cc1 | 4.77 µM
c1ccc(CC2CCN(c3ncnc4sccc34)CC2)cc1 | 1.61 µM
CC(C)Cn1c(N)c(C(=O)CSc2ccccc2)c(=O)n(C)c1=O | 5.57 µM
CC(=O)c1cn(CC(=O)Nc2ccccc2C)c2ccccc12 | 5.07 µM
CCOC(=O)c1sc2nc(CC(=O)OC)nc(NCc3ccc(Cl)cc3)c2c1C | 7.66 µM
Cc1ccc(-n2ncc3c(SCc4cccnc4)ncnc32)c(C)c1 | 5.76 µM
CCOc1cc(C(=S)N2CCOCC2)ccc1OS(=O)(=O)c1ccc(NC(C)=O)cc1 | 5.23 µM
CCc1c(C)c2ccc(OCC(=O)OC(C)C)c(C)c2oc1=O | 6.19 µM
Cn1c(=O)oc2cc(S(=O)(=O)N3CCCC(C(=O)N4CC=C(c5ccccc5)CC4)C3)ccc21 (stereo not given) | 5.41 µM
Clc1ccc(CSc2nnc(Cn3cnc4ccccc43)o2)cc1 | 5.02 µM
CCOc1ncccc1C(=O)OCC(=O)Nc1ccc(-c2nc3ccc(C)cc3s2)cc1 | 3.25 µM
COC(=O)c1nn(-c2ccc3c(c2)CCN3C(C)=O)cc1O | 1.29 µM
O=C(Nc1ccc(Oc2ccccc2)cc1)C1CCN(c2c3c(nc4ncnn24)CCC3)CC1 | 6.45 µM
COc1cc(OC)cc(C(=O)Nc2nnc(NC(=S)Nc3ccccc3)s2)c1 | 3.91 µM
Oc1ccc(-c2n[nH]c(=S)n2-c2ccc3c(c2)OCCO3)c(O)c1 | 5.37 µM
Cc1nn2cc(-c3ncc(C(F)(F)F)cc3Cl)cnc2c1Br | inactive
O=S(=O)(c1ccc2c(c1)OCCO2)N1CCC(c2nc3ccccc3s2)CC1 | 6.73 µM
COc1ccccc1OCC(=O)c1[nH]c(C)c(C(C)=O)c1C | 5.33 µM
NNC(=O)c1cccc(COc2ccccc2Br)c1 | 3.25 µM
Cc1cc(NC(=O)c2cc(-c3cccs3)on2)nn1Cc1ccc(Cl)cc1 | 5.48 µM
c1ccc(C(Cc2nc(-c3ccncc3)no2)c2ccccc2)cc1 | 5.05 µM
